# Source: patent publication US11629155B2, “Small molecule antagonist compound TAC5 series having toll-like receptor 3/7/8/9 inhibitory function” (AJOU UNIVERSITY INDUSTRY-ACADEMIC COOPERATION FOUNDATION, priority 2018, dated 2023)
# “Also recorded” adds a separate entry of the source.
# What was measured:
# [1] = target: T1, TLR9 (Homo sapiens, UniProt Q9NR96); assay: CpG ODN-induced TNF-α or IL-6 secretion in THP1-derived macrophages; format: cell-based; details: dose-dependent manner, FIGS. 4E-4G
# T1 construct: endogenous in cells; host or cells: THP1-derived macrophages (PMA-differentiated)
# T1 sequence (Q9NR96 26-1032): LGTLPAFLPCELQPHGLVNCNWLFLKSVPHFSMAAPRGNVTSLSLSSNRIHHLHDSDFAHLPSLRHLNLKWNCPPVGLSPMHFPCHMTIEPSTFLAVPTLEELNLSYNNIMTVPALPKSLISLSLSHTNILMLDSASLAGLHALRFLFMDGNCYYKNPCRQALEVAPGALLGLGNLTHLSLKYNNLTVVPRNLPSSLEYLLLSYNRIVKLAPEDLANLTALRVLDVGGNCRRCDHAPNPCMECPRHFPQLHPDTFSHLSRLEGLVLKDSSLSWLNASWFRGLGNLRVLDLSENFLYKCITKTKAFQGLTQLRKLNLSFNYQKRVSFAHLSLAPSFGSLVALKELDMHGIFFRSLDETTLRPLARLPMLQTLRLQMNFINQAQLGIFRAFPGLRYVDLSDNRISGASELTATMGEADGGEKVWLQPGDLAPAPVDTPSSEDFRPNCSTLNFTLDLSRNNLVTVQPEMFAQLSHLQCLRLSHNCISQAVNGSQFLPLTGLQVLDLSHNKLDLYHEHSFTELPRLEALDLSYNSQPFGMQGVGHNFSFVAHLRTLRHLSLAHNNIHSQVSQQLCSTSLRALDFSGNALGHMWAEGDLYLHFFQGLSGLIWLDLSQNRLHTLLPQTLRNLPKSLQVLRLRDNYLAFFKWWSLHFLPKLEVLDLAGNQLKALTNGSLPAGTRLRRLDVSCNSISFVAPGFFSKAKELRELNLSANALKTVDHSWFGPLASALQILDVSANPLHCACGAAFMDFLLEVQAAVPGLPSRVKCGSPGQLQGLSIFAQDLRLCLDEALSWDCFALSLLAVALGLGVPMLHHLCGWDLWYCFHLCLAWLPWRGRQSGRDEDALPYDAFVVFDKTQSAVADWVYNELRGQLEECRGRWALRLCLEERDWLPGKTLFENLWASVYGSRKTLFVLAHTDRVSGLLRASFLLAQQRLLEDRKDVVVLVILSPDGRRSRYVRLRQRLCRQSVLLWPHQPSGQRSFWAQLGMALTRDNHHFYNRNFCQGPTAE
# [2] = target: T2, TLR1/2 (Homo sapiens, UniProt O60603+Q15399); assay: Pam3CSK4-induced TNF-α secretion (ELISA) in THP1-derived macrophages; format: cell-based; details: 1 to 50 μM, FIG. 4D
# T2 construct: endogenous in cells; host or cells: THP1-derived macrophages (PMA-differentiated)
# [3] = tested on: MARC/lpr mice; assay: SLE mouse model (MARC/lpr mice); format: in vivo
# Method: QRT-PCR analysis was performed to detect the expression levels of specific genes in lymph nodes, spleen and kidney. Total RNA was isolated from lymph nodes, spleen and kidneys of 16-week-old mice using TRI reagent (Sigma-Aldrich, Co.). RNA was applied to qRT-PCR based on SYBR green (Enzo Life Sciences, Inc., Farmingdale, N.Y., USA). The following primers for the marker gene were used: mTLR7, 5′-ATGTGGACACGGAAGAGACAA-3′(SEQ ID NO: 1) and 5′-GGT AAG GGT AAG ATT GGT G-3′(SEQ ID NO: 2); mTLR9, 5′-ATGGTTCTCCGTCGAAGGACT-3′ (SEQ ID NO: 3) and 5′-GAG GCT TCA GCT CAC AGG G-3′(SEQ ID NO: 4); mIL-6, 5′-GAGGATACCACTCCCAACAGACC-3′(SEQ ID NO: 5) and 5′-AAGTGCATCATCGTTGTTCATACA-3′(SEQ ID NO: 6); mMyd88, 5′-CACCTGTGTCTGGTCCATTG-3′(SEQ ID NO: 7) and 5′-CTGTTGGACACCTGGAGACA-3′(SEQ ID NO: 8); mIL-17, 5′-GCT CCA GAA GGC CCT CAG A-3′ (SEQ ID NO: 9) and 5′-AGC TTT CCC TCC GCA TTG A-3′(SEQ ID NO: 10); mGAPDH, 5′-CTCAACACGGGAAACCTCAC-3′ (SEQ ID NO: 11) and 5′-CGCTCCACCAACTAAGAACG-3′(SEQ ID NO: 12) (Bioneer, Daejeon, Korea). Quantified individual RNA expression levels were normalized to GAPDH and expressed as RNA expression levels relative to the corresponding wild-type mice.
# The therapeutic potential of TAC5-a on systemic autoimmunity was further determined by intraperitoneally injecting 10 nmol/g (daily dosage) of TAC5-a (dissolved in 1% dimethylsulfoxide [DMSO]) into MARC/lpr mice for 11 days. This inhibitor clearly influenced mouse lymphatic proliferation. […] The production of anti-dsDNA autoantibodies was kept low (FIG. 6B), and serum antinuclear antibodies (ANAs) were reduced by treatment with inhibitors (FIG. 6C). The detection of certain proteins, such as albumin, in the urine serves as a marker for a kidney pathology called glomerulonephritis (GN), which is caused by inflammation of the glomerulus. […] Then, the effect of TAC5-a on the relative expression behaviors of specific genes in lymph nodes, spleen and kidneys at the transcription level was confirmed.
# T2 sequence (Q15399 25-786): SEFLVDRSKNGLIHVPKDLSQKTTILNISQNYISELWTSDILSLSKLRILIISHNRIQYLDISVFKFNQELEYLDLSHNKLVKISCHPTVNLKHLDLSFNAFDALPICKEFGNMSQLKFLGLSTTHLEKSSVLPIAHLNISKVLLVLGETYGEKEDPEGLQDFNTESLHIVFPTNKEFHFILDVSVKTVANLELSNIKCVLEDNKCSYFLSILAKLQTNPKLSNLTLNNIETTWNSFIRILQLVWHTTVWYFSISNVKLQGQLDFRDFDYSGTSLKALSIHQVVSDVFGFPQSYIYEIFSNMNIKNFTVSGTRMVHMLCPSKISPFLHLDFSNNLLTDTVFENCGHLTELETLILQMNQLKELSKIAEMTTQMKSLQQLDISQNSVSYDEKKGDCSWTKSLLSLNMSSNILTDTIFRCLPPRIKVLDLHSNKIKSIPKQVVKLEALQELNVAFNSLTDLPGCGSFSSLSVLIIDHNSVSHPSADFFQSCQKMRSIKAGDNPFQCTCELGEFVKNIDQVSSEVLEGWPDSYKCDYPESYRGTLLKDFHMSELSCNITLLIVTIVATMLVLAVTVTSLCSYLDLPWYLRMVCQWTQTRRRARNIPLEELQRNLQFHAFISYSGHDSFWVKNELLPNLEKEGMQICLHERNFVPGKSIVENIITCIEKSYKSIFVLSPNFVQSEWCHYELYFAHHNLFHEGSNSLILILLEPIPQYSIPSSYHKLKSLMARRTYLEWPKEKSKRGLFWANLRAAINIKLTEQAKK
# T2 sequence (O60603 21-784): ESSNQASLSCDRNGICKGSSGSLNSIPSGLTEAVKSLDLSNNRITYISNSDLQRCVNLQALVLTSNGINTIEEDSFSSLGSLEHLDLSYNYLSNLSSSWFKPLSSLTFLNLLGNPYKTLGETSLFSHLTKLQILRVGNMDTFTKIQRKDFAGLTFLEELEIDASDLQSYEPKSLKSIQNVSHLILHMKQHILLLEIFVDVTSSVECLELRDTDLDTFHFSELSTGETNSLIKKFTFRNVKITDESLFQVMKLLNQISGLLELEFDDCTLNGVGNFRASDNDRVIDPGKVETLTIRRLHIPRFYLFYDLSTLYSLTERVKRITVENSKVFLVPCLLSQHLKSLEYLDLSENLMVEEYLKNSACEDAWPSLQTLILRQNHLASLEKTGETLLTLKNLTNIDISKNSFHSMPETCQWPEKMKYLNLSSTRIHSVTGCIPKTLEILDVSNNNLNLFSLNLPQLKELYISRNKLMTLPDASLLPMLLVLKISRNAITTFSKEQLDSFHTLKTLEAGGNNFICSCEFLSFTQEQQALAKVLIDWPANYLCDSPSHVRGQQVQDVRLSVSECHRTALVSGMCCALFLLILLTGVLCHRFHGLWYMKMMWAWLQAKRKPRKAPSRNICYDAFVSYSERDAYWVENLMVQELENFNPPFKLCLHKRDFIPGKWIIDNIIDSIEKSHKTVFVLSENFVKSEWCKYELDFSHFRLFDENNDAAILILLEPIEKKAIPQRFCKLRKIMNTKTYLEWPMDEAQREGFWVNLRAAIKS
structure (smiles),measurement,setting,value
"Nc1cccc(COc2cccnc2N)c1 [TAC5-a, 3-((3-aminobenzyl)oxy)pyridin-2-amine]",TLR9-mediated TNF-α or IL-6 secretion,[1],significantly inhibited
same,TLR1/2 (Pam3CSK4)-mediated TNF-α secretion,[2],did not block
same,production of anti-dsDNA autoantibodies,"[3]; 10 nmol/g daily i.p. for 11 days, FIG. 6B",kept low
same,serum antinuclear antibodies (ANAs),"[3]; 10 nmol/g daily i.p. for 11 days, FIG. 6C",reduced
same,content of urine albumin,"[3]; 10 nmol/g daily i.p. for 11 days, FIG. 6D",significantly reduced
same,"lymph node swelling, appearance evaluation or size decrease","[3]; 10 nmol/g daily intraperitoneally for 11 days, FIG. 6A",clearly observed; also recorded: significantly prevented
same,IL-6 mRNA level in lymph nodes (qRT-PCR),[3]; FIGS. 6E to 6G,significantly reduced
same,IL-17 mRNA level in lymph nodes (qRT-PCR),[3]; FIGS. 6E to 6G,significantly reduced
same,TLR7 mRNA level in lymph nodes (qRT-PCR),[3]; FIGS. 6E to 6G,significantly reduced
